Measurements from article PMC10525132, “Potent Antioxidant and Anti-Tyrosinase Activity of Butein and Homobutein Probed by Molecular Kinetic and Mechanistic Studies” (Antioxidants, 2023).

How the values were obtained:
mTYR = mTYR (Agaricus bisporus, UniProt C7FF04); assay: Stability toward air and mTYR, decay of concentration by UV-Vis; conditions: air-saturated PBS pH 6.8, 30 °C, 7 U/ml mTYR, 0.05 and 0.1 mM
[1] = biological target: T1, mushroom tyrosinase (mTYR) (Agaricus bisporus, UniProt C7FF04); conditions: previous report, cited from earlier work
T1 construct: purchased Sigma-Aldrich (Milan, Italy)

[2] = Radical equilibration EPR (ReqEPR) for the O-H bond dissociation enthalpy; format: physicochemical
Protocol: Deoxygenated acetonitrile solutions containing the phenols (0.01–0.001 M) and di-tert-butyl peroxide (10% v/v) were sealed under nitrogen in a 2 mm ID suprasil quartz EPR tube. The sample was inserted in the thermostatted (30 °C) cavity of an X-band EPR spectrometer and photolyzed with a mercury–xenon lamp (240–400 nm, max 4500 mW/cm^2). Spectra were recorded with the following settings: modulation amplitude 0.2–1 Gauss, sweep width 30–60 Gauss, modulation frequency 100 kHz, frequency 9.76 GHz, sweep time 60 s, and microwave power 0.1–1 mW. Measured g-factors were corrected with respect to that of TEMPO (g = 2.0064) and of DPPH radical. In ReqEPR experiments, mixtures of TBP and butein were analyzed to obtain the molar ratio of the two equilibrating radicals by comparison of the digitized experimental spectra with computer-simulated ones, as previously described. This afforded the equilibrium constant, Keq. Different irradiation power levels (20% to 100%) and different ratios of the two phenols were tested to guarantee that the two species were at equilibrium.
The reactivity of (phenolic) chain-breaking antioxidants toward formal hydrogen atom transfer (HAT) to a radical such as peroxyl radicals is dictated by the strength of the phenolic O-H bond being broken, i.e., by its bond dissociation enthalpy (BDEOH), and by the steric hindrance in ortho position to the reactive OH [40, 41]. Indeed, there are well-established Evans–Polanyi linear free-energy correlations between the BDEOH and the inhibition rate constant kinh for phenolic antioxidants. One very accurate method to measure the BDEOH is via radical equilibration experiments using electron paramagnetic resonance spectroscopy, the ReqEPR technique. It consists of photolyzing the “unknown” phenol to be studied (^UPhOH) in a mixture with a reference phenol (^RPhOH) in the cavity of the EPR spectrometer with the addition of a peroxide (e.g., di-tert-butylperoxide) as a photochemical initiator. Analysis and deconvolution of the EPR spectrum containing both equilibrating radical species affords the equilibrium constant Keq (see Figure 3), which in turn allows determining the ∆G° of equilibration. Since it has been shown that ∆S° is negligible for such an equilibrium, this affords the BDEOH of ^UPhOH if the value is known for ^RPhOH (Figure 3A).
To convert this value into a gas-phase equivalent, it is necessary to correct for the effect of the solvent, which increases the apparent BDE value by H-bonding to the phenols (see Figure 3B). Such solvent effects can be accounted for quantitatively, as detailed in Figure 3B, by using Abraham’s solvatochromic parameters α2^H and β2^H, describing, respectively, the H-bond donating ability of the phenol and the H-bond accepting ability of the solvent. Considering that the solvent effect is negligible for TBP due to steric hindrance by the t-butyl groups in ortho [40], that α2^H for catechol is 0.73 and β2^H for acetonitrile is 0.39 [42], the DBE measured in acetonitrile must be downscaled by −1.4 kcal/mol to afford BDEOH = 78.4 ± 0.2 kcal/mol for butein in apolar solvent/gas-phase.

[3] = biological target: T1, mushroom tyrosinase (mTYR); conditions: cited from earlier work

T1 sequence (C7FF04 1-392): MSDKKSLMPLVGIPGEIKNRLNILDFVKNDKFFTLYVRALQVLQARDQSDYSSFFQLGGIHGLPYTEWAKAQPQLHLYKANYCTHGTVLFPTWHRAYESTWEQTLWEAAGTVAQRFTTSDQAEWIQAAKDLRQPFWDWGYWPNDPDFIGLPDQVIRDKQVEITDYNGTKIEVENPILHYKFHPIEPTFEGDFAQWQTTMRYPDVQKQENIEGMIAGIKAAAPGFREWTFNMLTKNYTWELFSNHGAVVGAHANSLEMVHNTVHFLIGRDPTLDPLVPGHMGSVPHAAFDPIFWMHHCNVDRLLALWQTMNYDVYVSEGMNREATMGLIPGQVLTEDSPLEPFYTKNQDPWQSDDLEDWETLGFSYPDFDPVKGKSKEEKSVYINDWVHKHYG
Sequence of mTYR (C7FF04 1-392): as above

| SMILES | behaviour as substrate of mTYR (mTYR) | Ki ([1]; monophenolase, competitive) [mM] | inhibition mode, monophenolase [1] | BDEOH ([2]; ReqEPR vs TBP, corrected for solvent to apolar solvent/gas-phase) [kcal/mol] | BDEOH ([2]; ReqEPR vs TBP, corrected for solvent to apolar solvent/gas-phase, listed as butein) [kcal/mol] | BDEOH higher compared to α-TOH ([2]; difference to α-TOH) [kcal/mol] | Keq (radical equilibration with TBP) ([2]; in acetonitrile at 298 K) | BDEOH ([2]; in acetonitrile at 298 K, not corrected for solvent) [kcal/mol] | BDEOH of any OH group in A ring ([2]; suggested from structure) [kcal/mol] | effect toward diphenolase reaction (reported) [3] | diphenolase inhibition (reported effect) ([3]; even at concentrations > 100 µM) | BDEOH ([2]; estimated from the value for butein by additive contribution of substituents) | BDEOH ([2]; estimated from the value for butein by additive contribution of substituents, listed as HB) [kcal/mol] | BDEOH ([2]; estimated from the value for butein by additive contribution of substituents, listed as homobutein) |
| --- | --- | --- | --- | --- | --- | --- | --- | --- | --- | --- | --- | --- | --- | --- |
| O=C(/C=C/c1ccc(O)c(O)c1)c1ccc(O)cc1O [Butein, (E)-1-(2,4-dihydroxyphenyl)-3-(3,4-dihydroxyphenyl)prop-2-en-1-one] | not a significant substrate | 1.41 | competitive | 78.4 ± 0.2 | 78.4 | 1.3 | 1.64 ± 0.63 | 79.8 ± 0.2 | > 86 | ineffective | poorly effective | – | – | – |
| COc1cc(/C=C/C(=O)c2ccc(O)cc2O)ccc1O [Homobutein, (E)-1-(2,4-dihydroxyphenyl)-3-(4-hydroxy-3-methoxyphenyl)prop-2-en-1-one] | not a significant substrate | – | – | – | – | – | – | – | – | – | – | 82.6 ^1 kcal/mol | 82.6 | ~ 82.6 kcal/mol |
